Reference: patent publication US5770565A, “Peptides for reducing or inhibiting bone resorption” (priority 1994, dated 1998)
Where a SMILES comes first, the peptide text is derived from it. Bridges are numbered along the chain shown (N, C = ends). [ ]: non-standard residue; d: D form. Tic = O=C(O)[C@@H]1Cc2ccccc2CN1; Pen = CC(C)(S)[C@H](N)C(=O)O; Mpa = O=C(O)CCS

Experiments:
[1] = tested on: αV β3 integrin, osteoclasts; test: series of assays of Example II for potency and selectivity (summary, FIG. 2)
From the text: Peptides of the RGDNTic (SEQ ID NO: 56) pharmacophore group are characterized, in general, as having increased potency, whereas the peptides of the pharmacophore RGDDV (SEQ ID NO: 1) group generally have higher receptor selectivity. […] As used herein, the term "potency" or "potent" means that a peptide of the invention is active at a relatively low concentration in the assays described in Examples II and III. A potent peptide of the invention can be identified, for example, using the assays described in Examples II and III.
Selectivity can be due, for example, to the ability of a peptide of the invention to bind to αV β3 with greater affinity than it binds to other integrins. Thus, in addition to having selectivity, for example, for osteoclast binding to a matrix, a peptide of the invention also can display receptor selectivity and, therefore, more specifically alter receptor-mediated binding to a matrix. As used herein, the term "receptor selectivity" means that a peptide of the invention can bind to one receptor with greater affinity than it can bind to another receptor.

αV β3 receptor = target: T1, αV β3 receptor (Homo sapiens, UniProt P05106+P06756); test: αV β3 ELISA (competitive receptor binding); conditions: receptor ELISAs compared
T1 construct: The αV β3 receptor was purified from octylglucopyranoside-extracted human placenta; from tissue; host or cells: human placenta
Method: (§1) Peptide binding to purified human αV β5 and αV β3, which are VnR's, and to α5 β1, which is a FnR, was determined using competitive ELISA assays as described below.
Peptide binding to purified αV β3 receptor was determined by using a competitive ELISA, in which αV β3 receptor was immobilized and the binding of solubilized VN, in the presence of various concentrations of peptide analogue, was detected using a monoclonal mouse IgG anti-VN antibody and a labelled anti-mouse IgG conjugate. A monoclonal anti-VN antibody can be obtained using routine methods (see, for example, Harlow and Lane, Antibodies: A laboratory manual (Cold Spring Harbor Laboratory Press 1988), which is incorporated herein by reference).
96 well microtiter plates were coated overnight at RT with 100 μl/well of αV β3 receptor (0.5 μg/ml in 1×TBS, 4 mM octylglucoside, 1 mM CaCl2). The wells were blocked with 200 μl/well of 1% BSA in 1×TBS, 1 mM CaCl2 for at least 30 min. The plates were washed 2× with 1×TBS, 1 mM CaCl2. 50 μl peptide in 1×TBS, 1 mM CaCl2, 0.05% "TWEEN 20" polyoxyethylenesorbitan monolaurate was added in 10-fold serial dilutions. 50 μl of Vn in the same buffer then was added to each well.
The plates were incubated for 3 hr at RT, then washed 3× with 1×TBS, 0.05% "TWEEN 20" polyoxyethylenesorbitan monolaurate. […] The plates were read at 490 nm and the data analyzed by four parameter fit. […]

[2] = half-life of peptide in serum; conditions: in vivo
From the text: Increased stability of a disulfide bonded peptide of the invention also can be conferred by incorporating a hydrophobic amino acid residue such as phenylalanine at position X1 or X8 or both X1 and X8 in an RGDNTic (SEQ ID NO: 56) or RGDDV (SEQ ID NO: 1) pharmacophore as disclosed herein. The presence of such a residue can stabilize the disulfide bond against enzymatic degradation (see Bauer et al., Life Sciences 31:1133-1140 (1982)). […] In addition, the half-life of a peptide in a subject can be determined, for example, by high performance liquid chromatography (HPLC) of serum samples collected from the subject at various times following administration of the peptide. One skilled in the art would know how to select appropriate elution buffers for HPLC based on the physico-chemical properties of a particular peptide.

Swiss-Webster mice = test: PTH-induced hypercalcemia assay; type: in vivo; conditions: peptide infused 4 hr at various doses, 0.2 mg PTH/kg i.v., FIG. 9
From the text: Parathyroid hormone (PTH) activates osteoclasts, which are involved in bone resorption. Associated with the increased osteoclast activity is an increase in serum calcium. The PTH-induced hypercalcemia assay measures the level of serum calcium, which is an indication of bone resorption in a subject (Fischer et al., Endocrinology 132:1411-1413 (1993), which is incorporated herein by reference).
Swiss-Webster mice, which had been parathyroidectomized two weeks prior to beginning the assay, were obtained from Taconic Lab Animals and Services (Germantown N.Y.). Femoral vein catheters (PE-50 fused with PE10 polyethylene tubing; Becton Dickinson; Parsippany, N.J.) were installed in the mice, flushed and locked with heparinized saline (1:10), sutured to adjacent muscle and internalized within the inguinal space of the incision before closing the incision with wound clips. […]
The experiment was initiated by feeding the mice a calcium-deficient diet overnight, then injecting the mice the following morning with a bolus of 0.2 mg PTH/kg (hPTH 1-34; Bachem; Torrance Calif.), intravenously. […] Various doses of a peptide or vehicle were infused into an animal for 4 hr, then ionized serum calcium again was measured. […] Serum calcium measurements were expressed as the difference between the value 30 min before the PTH pulse and 4 hr after peptide infusion was started. […]

α5 β1 (FnR) = target: T2, α5 β1 (FnR) (Homo sapiens, UniProt P05556+P08648); test: α5 β1 ELISA (competitive receptor binding); conditions: receptor ELISAs compared
T2 construct: Fibronectin receptor (FnR) was purified from 100 mM octyl-glucopyranoside-extracted human placenta; from tissue; host or cells: human placenta
Method: as §1
Peptide binding to purified human α5 β1 (FnR) also was determined using a competitive ELISA. In these assays, Fn was immobilized to the wells and the binding of solubilized FnR in the presence of various concentrations of a peptide analogue was determined using a mouse monoclonal antibody to human β1 (clone P4C10; Gibco) and specific binding was visualized using a second antibody.
Microtiter wells were coated at RT by adding 100 μl of 2 μg/ml human Fn in TBS and incubating the plates overnight at 4° C. Following incubation, the plates were washed 3× with TBS/"TWEEN-20". RGD peptides were diluted in TBS containing 20 mM OG and 2 mM MnCl2 and 50 μl was added to wells at 10-fold serial dilutions. FnR was diluted in the same buffer and 50 μl was added to each well.
The plates were incubated for 3 hr at RT and washed with 300 μl TBS/"TWEEN-20". Bound receptor was incubated with 100 μl of the monoclonal anti-β1 antibody for 2 hr, then washed 3× with TBS/"TWEEN-20". […] The amount of bound second antibody was determined as described above.
The IC50 values for various RGD peptides were calculated by determining the concentration of a peptide that inhibited binding of Vn to αV β5 or αV β3 or of Fn to α5 β1 by 50%. […]

osteoclasts = conditions: cited from earlier work

## CC(C)[C@@H]1NC(=O)[C@H](CC(=O)O)NC(=O)[C@H](CC(=O)O)NC(=O)CNC(=O)[C@H](CCCNC(=N)N)NC(=O)[C@H](C)NC(=O)[C@H](CCCNC(=N)N)NC(=O)[C@@H](NC(=O)CN)C(C)(C)SSC[C@@H](C(=O)N[C@@H](C)C(=O)O)NC1=O [compound 138] (H-G[Pen]RARGDDVCA-OH; disulfide 2-10)
[1]
  potency and selectivity together (summary classification): both potent and selective
  receptor selectivity (summary classification): particularly receptor selective

## CC(=O)N[C@H]1CSSC(C)(C)[C@@H](C(N)=O)NC(=O)[C@@H]2CCCN2C(=O)[C@H](CC(N)=O)NC(=O)[C@H](CC(=O)O)NC(=O)CNC(=O)[C@H](CCCNC(=N)N)NC1=O [compound 228] (Ac-CRGDNP[Pen]-NH2; disulfide 1-7)
[1]
  receptor selectivity (summary classification): particularly receptor selective

## CC(=O)N[C@@H]1C(=O)N[C@@H](Cc2ccccc2)C(=O)N[C@@H](C)C(=O)N[C@@H](CCCNC(=N)N)C(=O)NCC(=O)N[C@@H](CC(=O)O)C(=O)N[C@@H](CC(N)=O)C(=O)N2CCC[C@H]2C(=O)N[C@H](C(N)=O)CSSC1(C)C [peptide 214] (Ac-[Pen]FARGDNPC-NH2; disulfide 1-9)
αV β3 receptor
  relative affinity for αV β3, α5 β1 and αV β5: higher affinity for αV β3 and α5 β1 than for αV β5
[1]
  potency (summary classification): particularly potent

## C[C@@H]1NC(=O)[C@H](C)NC(=O)[C@@H](NC(=O)CN)C(C)(C)SSC[C@@H](C(N)=O)NC(=O)[C@H]([C@@H](C)O)NC(=O)[C@H](CC(=O)O)NC(=O)[C@H](CC(=O)O)NC(=O)CNC(=O)[C@H](CCCNC(=N)N)NC1=O [compound 186] (H-G[Pen]AARGDDTC-NH2; disulfide 2-10)
[1]
  receptor selectivity (summary classification): particularly receptor selective

## CC(=O)N[C@H]1CSSC[C@@H](C(N)=O)NC(=O)[C@@H]2Cc3ccccc3CN2C(=O)[C@H](CO)NC(=O)[C@H](CC(=O)O)NC(=O)CNC(=O)[C@H](CCCNC(=N)N)NC1=O [compound 812, Ac-CRGDS(Tic)Cs-NH2] (Ac-CRGDS[Tic]C-NH2; disulfide 1-7)
[1]
  potency (summary classification): particularly potent
[1]; FIG. 2
  activity of peptides with minimally essential elements: demonstrate activity

## CC(=O)N[C@@H](Cc1ccccc1)C(=O)N[C@H]1CSSC[C@@H](C(N)=O)NC(=O)[C@H](Cc2ccccc2)NC(=O)[C@H]([C@@H](C)O)NC(=O)[C@H](CC(=O)O)NC(=O)CNC(=O)[C@H](CCCNC(=N)N)NC1=O [peptide 220] (Ac-FCRGDTFC-NH2; disulfide 2-8)
[2]
  half-life in serum: relatively long

## CC(C)[C@@H]1NC(=O)[C@H](CC(=O)O)NC(=O)[C@H](CC(=O)O)NC(=O)CNC(=O)[C@H](CCCNC(=N)N)NC(=O)CCSSC[C@@H](C(N)=O)NC1=O [compound 191] ([Mpa]RGDDVC-NH2; disulfide 1-7)
Swiss-Webster mice
  effect on PTH-induced rise in serum ionized calcium: decreased the PTH-induced rise in serum ionized calcium in a dose responsive manner

## C[C@H](NC(=O)[C@@H]1CSSC(C)(C)[C@H](NC(=O)CN)C(=O)N[C@@H](C)C(=O)N[C@@H](C)C(=O)N[C@@H](CCCNC(=N)N)C(=O)NCC(=O)N[C@@H](CC(=O)O)C(=O)N[C@@H](CC(N)=O)C(=O)N2CCC[C@H]2C(=O)N1)C(=O)O [compound 310] (H-G[Pen]AARGDNPCA-OH; disulfide 2-10)
α5 β1 (FnR)
  selectivity toward α5 β1 versus αV β5: more selective toward α5 β1 than toward αV β5

## Echistatin
osteoclasts
  binding to osteoclasts: nonselective
